Assays:
guinea pigs = experiment: Allergen-induced bronchoconstriction in guinea pigs (Konzett-Roessler); type: in vivo, guinea pig; conditions: Cavia porcellus, po, 1 h, 60 minutes before ovalbumin, read-out: ED40-Value, inhibition of the bronchoconstriction elicited by ovalbumin
Description: The antiasthmatic effect of compounds according to the invention was tested in anesthetized and ventilated guinea pigs. To induce an asthmatic reaction, the animals were passively sensitized by a single intraperitoneal injection of anti-ovalbumin serum. After 48 hours an asthmatic reaction was elicited by intravenous challenge with 0.2 mg/kg of ovalbumin. The immediately resulting bronchoconstriction was measured as an increase in intratracheal pressure. Effects caused by histamine, serotonin and sympathic counterreaction were eliminated by intravenous pretreatment with 2.15 mg/kg of mepyramine, 46.4 μg/kg of propranolol, 4.64 mg/kg of atropine, and 1 mg/kg of methysergide, all administered 5 minutes before challenge. Compounds according to the invention were orally administered 60 minutes before the administration of ovalbumin. The following ED40-values for the inhibition of the bronchoconstriction elicited by ovalbumin, i.e. the effective doses causing a 40% average inhibition of the bronchoconstriction, were determined: […]

5-lipoxygenase [1] = target: T1, 5-lipoxygenase (Rattus norvegicus, UniProt P12527); experiment: Inhibition of 5-lipoxygenase in RBL-1-cells; type: cell-based; conditions: 20 μM [14C]-arachidonic acid, 20 μM A 23 187
T1 construct: endogenous in cells; host or cells: RBL-1 cells (rat basophilic leukemia), intact
T1 sequence (P12527 1-673): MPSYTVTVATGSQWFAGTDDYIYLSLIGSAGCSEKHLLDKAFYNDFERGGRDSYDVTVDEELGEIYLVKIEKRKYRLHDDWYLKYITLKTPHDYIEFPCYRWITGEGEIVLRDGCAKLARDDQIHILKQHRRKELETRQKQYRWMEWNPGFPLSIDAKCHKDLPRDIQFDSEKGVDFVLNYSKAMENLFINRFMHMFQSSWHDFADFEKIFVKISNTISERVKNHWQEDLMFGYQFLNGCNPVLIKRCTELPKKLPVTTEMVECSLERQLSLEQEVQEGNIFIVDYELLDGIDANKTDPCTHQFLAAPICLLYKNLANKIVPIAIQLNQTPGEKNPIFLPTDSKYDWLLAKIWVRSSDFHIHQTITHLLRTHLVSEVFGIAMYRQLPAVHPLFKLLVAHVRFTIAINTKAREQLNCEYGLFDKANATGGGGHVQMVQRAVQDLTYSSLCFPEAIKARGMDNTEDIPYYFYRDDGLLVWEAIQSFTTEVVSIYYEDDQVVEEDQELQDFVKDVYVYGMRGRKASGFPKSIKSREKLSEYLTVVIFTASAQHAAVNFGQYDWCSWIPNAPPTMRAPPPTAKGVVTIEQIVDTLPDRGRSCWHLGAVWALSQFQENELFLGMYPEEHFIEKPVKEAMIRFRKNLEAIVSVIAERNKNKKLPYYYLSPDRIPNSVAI
Description: To determine the inhibition of 5-lipoxygenase rat basophilic leukemia cells (RBL-1-cells) were cultured in vitro, harvested by centrifugation, washed with 50 mM potassium phosphate buffer of pH 7.4, and then suspended in this buffer at 1×10^7 cells/mi. To 1 ml each of this suspension there was added indomethacin (10 μM) and calcium chloride (2 mM), and then the mixture was incubated in the absence or presence of a compound according to the invention in a concentration range of from 0.1 μM to 100 μM for 3 minutes and thereafter with 20 μM of [^14 C]-arachidonic acid and 20 μM of the calcium ionophore A 23 187 for 10 minutes. The reaction was stopped by adding 20 μl of glacial acetic acid, and then the mixture was extracted with ethyl acetate to isolate the metabolites of arachidonic acid formed by the enzymatic action of 5-lipoxygenase. These were separated by thin layer chromatography using a solvent mixture known to be suitable for lipoxygenase products [c.f. Jakschik et al., Biochem. Biophys. Res. Commun. 102, 624 (1981)].
The distribution of the radioactivity among the various metabolites of arachidonic acid was measured using a TLC Linear Analyzer. By correlating the percentages of the amount of the products formed under the action of 5lipoxygenase (5-HETE, isomers of LTB4) in the absence as well as in the presence of different concentrations of compounds according to the invention, the IC50 -values, i.e. the concentrations which cause 50% inhibition of 5-lipoxygenase were determined graphically from semilogarithmic diagrams.

5-lipoxygenase [2] = experiment: 5-lipoxygenase inhibition in rat blood after oral administration (ex vivo iLTB4-formation); conditions: male Wistar rats, 21.5 mg/kg oral, one hour after administration, A 23 187 15 μg/ml
Description: The bioavailability of the compounds of formula I as 5-lipoxygenase inhibitors was characterized by means of an ex vivo biochemical assessment method described by Tateson et al. in Brit. J. Pharmacol. 94, 528 (1988). A compound of formula I was orally administered to male rats (Wistar strain) in a dose of 21.5 mg/kg. One hour after administration the rats after lethal CO2 -narcosis were bled by heart puncture with added heparin as an anticoagulant. Aliquots of the whole blood were incubated at 37° C. for 30 minutes in a water bath with calcium ionophore A 23 187 at an end concentration of 15 μg/ml. At the end of the incubation the samples were centrifuged, and the concentration of immunoreactive LTB4 (iLTB4) in aliquots of […] percent inhibition of ex vivo iLTB4 -formation in whole blood of rats treated with a compound according to the invention, rats orally treated with an appropriate vehicle solution were included in all experiments, and aliquots of their blood were run in parallel and were processed in the same way as described. The average iLTB4 -content of the plasma of the vehicle treated rats served as the 100% value. The activity in percent of the ex vivo iLTB4 -formation after oral administration of a compound according to the invention was calculated by dividing the average value of the iLTB4 -content in ng iLTB4 /ml of the group treated with a compound according to the invention by the average value of the iLTB4 -contents in ng iLTB4 /ml of the vehicle treated group and subsequent multiplication by the factor 100. The respective inhibition in percent was calculated by subtracting the activity in percent from 100.

5-lipoxygenase [3] = target: T1, 5-lipoxygenase; experiment: Inhibition of cell-free 5-lipoxygenase from RBL-1-cells; type: biochemical; conditions: 10,000×g supernatant of RBL cells; polarographic; arachidonic acid 75 μM
Description: Cell-free 5-lipoxygenase was polarographically measured from 10,000×gsupernatant of homogenized rat basophilic leucemia cells [M. Haurand and L. Flohe in Biol. Chem. Hoppe-Seyler 369, 133-142 (1988)]. After preincubation of the 10,000×g supernatant with arachidonic acid (75 μM), ATP (adenosine triphosphate; 4 μM), reduced glutathione (4 mM), and either a compound according to the invention (0.1 to 100 μM) or a solvent (ethanol and/or dimethyl sulfoxide) at 35° C. for 5 minutes, the lipoxygenase reaction was initiated by addition of calcium chloride (3 mM) and recorded simultaneously.
The activity of 5-lipoxygenase was determined from the difference of the pO2 -decrease before and after addition of calcium chloride. The evaluation included the initial rate of the reaction after the lag-phase as well as the duration of the lag-phase. In a concentration range of from 5 to 10 μM the test substances induced lag-phases of 15 seconds.

| IC50 (5-lipoxygenase [1]) | IC50 (5-lipoxygenase [3]) | SMILES | ED40 (guinea pigs) | Inhibition of ex vivo iLTB4-formation in whole blood (5-lipoxygenase [2]; 21.5 mg/kg) | Inhibition of ex vivo iLTB4-formation in whole blood (5-lipoxygenase [2]) |
| --- | --- | --- | --- | --- | --- |
| 2 µM | 7 µM | NC(=O)N(O)Cc1ccc(Oc2ccc(-n3ccnc3)cc2)cc1 [Example 1, N-hydroxy-N-[4-[4-(1H-imidazol-1-yl)phenoxy]phenylmethyl]urea] | 9.3 mg/kg | 89% | – |
| 5 µM | 3 µM | CC(=O)N(O)Cc1ccc(Oc2ccc(-n3ccnc3)cc2)cc1 [Example 3, N-hydroxy-N-[4-[4-(1H-imidazol-1-yl)phenoxy]phenylmethyl]acetamide] | 15.5 mg/kg | – | 91% |
